Reference: patent publication US20150231209A1, “STIMULATION OF OVARIAN FOLLICLE DEVELOPMENT AND OOCYTE MATURATION” (THE BOARD OF TRUSTEES OF THE LELAND STANFORD JUNIOR …, priority 2012, published 2015)

Tests used:
ovarian grafts = assay: Ovarian grafting under kidney capsule of FSH-treated hosts: graft weights and follicle counting; assay type: in vivo, mice
Method: FIG. 3. Additive effects of Hippo signaling disruption and Akt stimulation promoted secondary follicle growth. A) Secondary follicles are responsive to IVA treatment. Secondary follicles (115 um in diameter) were isolated from mice at day 10 of age and cultured in vitro with the standard IVA protocol (first day with bPV(hopic) at 3 mM and 740YP at 15 ug/ml, followed by one more day with 740YP alone), followed by treatment with daily FSH (100 ng/ml) for two more days (IVA+FSH). The control groups were either treatment with media alone for four days or treated with the IVA reagent for two days followed by media alone (IVA alone). B) Ovarian fragmentation and IVA treatment led to additive effects on ovarian weight gain and secondary follicle growth. Paired ovaries from mice at day 10 of age were fragmented into three pieces. Fragments from one side were treated with the IVA protocol (bpV(hopic) at 30 uM and 740YP at 150 ng/ml for one day, followed by one more day with 740YP only) whereas fragments from the contralateral side were incubated in media alone. Ovarian fragments were then allo-transplanted into kidney capsules of adult ovariectomized mice with hosts injected with FSH (daily at 1 IU/animal). Five 5 days later, ovarian grafts were retrieved, fixed and weighted. Left panel: graft weights; right panel: Follicle dynamics of grafted ovarian fragments. Percentages of follicles at different stages were determined based on serial sections of grafts. C, Follicle dynamics before and after grafting of intact and fragmented murine ovaries with or without treatment with Akt stimulators. Left: total follicle numbers, Right: follicle dynamics. n=4. Same letter symbols indicate significant differences (p<0.05). D-F. Vitrified human cortical strips were thawed and fragmented into cubes before treatment with Akt stimulators for 2 days followed by grafting into immune-deficient mice for 4 weeks. D. Cortical strips before grafting. Arrow: a secondary follicle, arrowheads: primordial/primary follicles. Scale bar, 100 μm. E. A kidney graft in situ (left) and after isolation (right), showing an antral follicle. F. Histology of two large antral follicles with the side view of one showing an oocyte at the germinal vesicle stage (arrow). Scale bar, 1 mm. Mean±SEM; * p<0.05.
(§1) FIG. 7. Pre-treatment with verteporfin and CCN2 antibodies suppressed fragmentation-induced ovarian growth. A, Pretreatment with verteporfin suppressed fragmentation-induced increases in CCN2, but not AMH, transcript levels. Juvenile mice were injected i.p. with verteporfin for 3 h before retrieving ovaries for fragmentation. At 4 h after incubation, transcript levels for CCN2 and AMH were determined by real-time RT-PCR. n=6-12. […] Ovaries from juvenile mice pre-injected with verteporf in for 3 h were fragmented and incubated for 1 h before grafting into FSH-treated hosts for 5 days followed by determination of graft weights. Numbers in parentheses are number of samples used. C, Follicle dynamics of intact and fragmented ovarian grafts from animals with or without verteporf in (VP) pretreatment. n=3-5. D, Incubation of fragmented ovaries with CCN2 antibodies suppressed ovarian weight increases. Paired ovaries were fragmented into 3 pieces followed by incubation with CCN2 antibodies or non-immune-IgG for 18 h before grafting for 5 days. Mean±SEM; *p<0.05.
Left upper panel: Paired ovaries from day 10 mice were treated with or without JASP (10 μM) for 30 min. before analyses of F- and G-actin content. Left lower panel: Real-time RT-PCR analyses of CCN2 transcript levels after 30 min. exposure to JASP. Right panel: Immunoblotting analyses of CCN2 protein levels after 30 min. treatment with JASP. Upper panel: Immunoblotting analyses. Lower panel: quantitative analyses of densitometric scanning data. Numbers in parentheses are number of samples used. * p<0.05. […]

AMH transcripts = assay: Real-time RT-PCR of AMH transcripts after verteporfin pretreatment and ovarian fragmentation; assay type: in vivo; settings: day 10 mice injected i.p. for 3 h before fragmentation; 4 h after incubation
Method: as §1
(§2) Roles of Hippo signaling and CCN2 in fragmentationinduced follicle growth: YAP has no transcriptional activity and its actions are dependent on downstream transcriptional factors. […]

CCN2 transcripts = assay: Real-time RT-PCR of CCN2 transcripts after verteporfin pretreatment and ovarian fragmentation; assay type: in vivo; settings: day 10 mice injected i.p. for 3 h before fragmentation; 4 h after incubation
Method: as §1, §2

PTEN = PTEN (Homo sapiens, UniProt P60484); settings: read-out: IC50, inhibits PTEN; cited from earlier work
ovaries from day 10 mice = assay: Ovarian explant cultures: ovarian weight and follicle dynamics; assay type: cell-based; settings: for ovarian explant weights: explants from day 10 mice cultured with CCN growth factors for 4 days
Method: FIG. 2. […] A, Ovarian fragmentation increased F-actin levels. Paired ovaries from day 10 mice were cut into 3 pieces or kept intact before immunoblotting analyses of F- and G-actin levels (upper panel). Lower panel: F- to G-actin ratios. N=6-11. B, Ovarian fragmentation decreased phospho-YAP(pYAP) levels and pYAP to total YAP ratios. Paired ovaries with or without cutting were incubated for 1 h, followed by immunoblotting. Left panel: representative immunoblots; Right panel: ratios of different antigens. n=8 pairs. C, Ovarian fragmentation increased expression of CCN growth factors and BIRC apoptosis inhibitors. Paired ovaries with or without cutting were incubated for 1 h […] before analyses of transcript levels normalized by GAPDH. Intact ovaries: solid lines; pooled 3 pieces: dashed lines. n=10-15. D, Ovarian fragmentation increased CCN2 proteins. Paired ovaries with or without cutting were incubated for 3-5 h before immunoblotting. Upper panel: representative blots; lower panel: quantitative analyses. N=3-5. E, Treatment with CCN2, 3, 5, and 6 increased ovarian explant weights. Explants from day 10 mice were cultured with different CCN growth factors for 4 days before weighing. n=5-6. Mean±SEM; * p<0.05. IN=Intact; PI=Pieces.
FIG. 6. Increased expression of CCN growth factors and BIRO inhibitors after ovarian fragmentation and the ability of CCN growth factors to promote follicle development. A, Ovarian fragmentation without subsequent grafting increased the expression of key CCN growth factors (CCN2, 3, 5, and 6) and apoptosis inhibitors (BIRC1 and 7). Paired ovaries from day 10 mice with or without cutting into 3 pieces were incubated for up to 7 h before analyses of transcript levels for different genes. Intact ovaries: solid lines; three pieces: dashed lines. n=10-15. B, Increases in CCN2 expression in somatic cells of fragmented ovaries. Paired ovaries from day 10 mice with or without cutting into 3 pieces were cultured for 1 h and then transplanted under kidney capsules. At 3 h after transplantation, ovaries were dissected followed by isolation of oocytes and somatic cells as previously described (2). CCN2 and GAPDH mRNA levels were measured by real-time RT-PCR (n=4). *, P<0.05 vs intact. C. Treatment with CCN growth factors promoted preantral follicle development in ovarian explants. Following explant cultures with different CCN growth factors, follicle dynamics were determined by counting the percentages of follicles at different developmental stages. Mean±SEM; *p<0.05, n=5.
Ovaries from day 10 mice were placed on culture plate insert (Millipore) and cultured in DMEM/F12 containing 0.1% BSA, 0.1% Albumax II, insulin-transferrin-selenium, 0.05 mg/ml L-ascorbic acid and penicillin-streptomycin for 4 days with medium changes after 2 days of culture as described. At the end of culture, ovarian weight was measured and some of the ovaries were embedded for histological analyses of follicle dynamics.
We tested the ability of S1P to promote follicle growth. […] We hypothesized that S1P acts through its receptors in granulosa cells to trigger actin polymerization, disrupt Hippo signaling and promote follicle growth.

oocytes = settings: intrabursal treatment; cited from earlier work
[1] = pretreatment for 3 h, grafting 5 days

PTEN, sequence (P60484 whole entry): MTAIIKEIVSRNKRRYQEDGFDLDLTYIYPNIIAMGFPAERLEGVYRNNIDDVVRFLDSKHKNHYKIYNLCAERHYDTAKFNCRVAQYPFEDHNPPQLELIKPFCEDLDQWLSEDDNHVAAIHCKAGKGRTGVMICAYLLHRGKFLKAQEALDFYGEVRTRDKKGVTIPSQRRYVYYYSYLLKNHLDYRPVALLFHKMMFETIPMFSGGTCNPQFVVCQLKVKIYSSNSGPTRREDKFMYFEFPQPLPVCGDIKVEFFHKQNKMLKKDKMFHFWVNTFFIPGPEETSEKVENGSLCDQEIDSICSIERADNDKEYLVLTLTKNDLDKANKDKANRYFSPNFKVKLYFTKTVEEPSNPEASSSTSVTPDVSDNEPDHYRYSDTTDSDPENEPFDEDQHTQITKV

Molecule: verteporfin
- graft weights, intact versus fragmented pairs (ovarian grafts; pretreatment for 3 h, fragmentation, grafting into FSH-treated hosts for 5 days): no significant changes
- antral/preovulatory follicles (ovarian grafts; [1]): smaller suppression
- fragmentation induced increases in late secondary follicles (ovarian grafts; [1]): prevented
- total follicles in grafts (ovarian grafts; [1]): no loss of total follicles
- transcripts for anti-Müllerian hormone (AMH) (AMH transcripts): without affecting
- fragmentation-induced increases in CCN2 transcripts (CCN2 transcripts): blocked

Molecule: O=C([O-])c1ccccn1.OO.OO.[K+].[K+].[OH-].[V] [dipotassium bisperoxo(picolinato)oxovanadate (V)]
- IC50 (PTEN): 31 nM

Molecule: CCCCCCCCCCCCC/C=C/[C@@H](O)[C@@H](N)COP(=O)(O)O [S1P, sphingosine 1-phosphate]
- graft weights (ovarian grafts; 6 μM S1P for 18 h, grafting into adult ovariectomized hosts for 5 days): increases in graft weights
- ovarian weights in explant culture (ovaries from day 10 mice; 6 μM, 4 days, ovaries from day 10 mice): major increases in ovarian weights
- oocyte apoptosis induced by X-irradiation (oocytes): suppressed

Molecule: OO.OO.[K+].[OH-].[V].c1cnc2c(c1)ccc1cccnc12 [potassium bisperoxo (1,10-phenanthroline)oxovanadate (V)]
- IC50 (PTEN): 38 nM

Molecule: dipotassium bisperoxo(5-hydroxypyridine-2-carboxyl)oxovanadate (V)
- IC50 (PTEN): 14 nM

Molecule: potassium bisperoxo(bipyridine)oxovanadate (V)
- IC50 (PTEN): 18 nM

B1: CCN2: CCN growth factor protein, acts downstream of disrupted Hippo signaling (protein, UniProt P29279 27-349, looked up)
CCN family member 2: QNCSGPCRCPDEPAPRCPAGVSLVLDGCGCCRVCAKQLGELCTERDPCDPHKGLFCHFGSPANRKIGVCTAKDGAPCIFGGTVYRSGESFQSSCKYQCTCLDGAVGCMPLCSMDVRLPSPDCPFPRRVKLPGKCCEEWVCDEPKDQTVVGPALAAYRLEDTFGPDPTMIRANCLVQTTEWSACSKTCGMGISTRVTNDNASCRLEKQSRLCMVRPCEADLEENIKKGKKCIRTPKISKPIKFELSGCTSMKTYRAKFCGVCTDGRCCTPHRTTTLPVEFKCPDGEVMKKNMMFIKTCACHYNCPGDNDIFESLYYRKMYGDMA
- ovarian explant weights (ovaries from day 10 mice): dose-dependent increases

B2: CCN3: CCN growth factor protein (protein, UniProt P48745 32-357, looked up)
CCN family member 3: TQRCPPQCPGRCPATPPTCAPGVRAVLDGCSCCLVCARQRGESCSDLEPCDESSGLYCDRSADPSNQTGICTAVEGDNCVFDGVIYRSGEKFQPSCKFQCTCRDGQIGCVPRCQLDVLLPEPNCPAPRKVEVPGECCEKWICGPDEEDSLGGLTLAAYRPEATLGVEVSDSSVNCIEQTTEWTACSKSCGMGFSTRVTNRNRQCEMLKQTRLCMVRPCEQEPEQPTDKKGKKCLRTKKSLKAIHLQFKNCTSLHTYKPRFCGVCSDGRCCTPHNTKTIQAEFQCSPGQIVKKPVMVIGTCTCHTNCPKNNEAFLQELELKTTRGKM
- ovarian explant weights (ovaries from day 10 mice): dose-dependent increases

B3: CCN5: CCN growth factor protein (protein, UniProt O76076 24-250, looked up)
CCN family member 5: QLCPTPCTCPWPPPRCPLGVPLVLDGCGCCRVCARRLGEPCDQLHVCDASQGLVCQPGAGPGGRGALCLLAEDDSSCEVNGRLYREGETFQPHCSIRCRCEDGGFTCVPLCSEDVRLPSWDCPHPRRVEVLGKCCPEWVCGQGGGLGTQPLPAQGPQFSGLVSSLPPGVPCPEWSTAWGPCSTTCGLGMATRVSNQNRFCRLETQRRLCLSRPCPPSRGRSPQNSAF
- ovarian explant weights (ovaries from day 10 mice): dose-dependent increases

B4: CCN6: CCN growth factor protein (protein, UniProt O95389 24-354, looked up)
Cellular communication …: TGPLDTTPEGRPGEVSDAPQRKQFCHWPCKCPQQKPRCPPGVSLVRDGCGCCKICAKQPGEICNEADLCDPHKGLYCDYSVDRPRYETGVCAYLVAVGCEFNQVHYHNGQVFQPNPLFSCLCVSGAIGCTPLFIPKLAGSHCSGAKGGKKSDQSNCSLEPLLQQLSTSYKTMPAYRNLPLIWKKKCLVQATKWTPCSRTCGMGISNRVTNENSNCEMRKEKRLCYIQPCDSNILKTIKIPKGKTCQPTFQLSKAEKFVFSGCSSTQSYKPTFCGICLDKRCCIPNKSKMITIQFDCPNEGSFKWKMLWITSCVCQRNCREPGDIFSELKIL
- ovarian explant weights (ovaries from day 10 mice): dose-dependent increases
